Experimental data from patent US20060160989A1, “Polypeptide useful as antiallergic/antiasthmatic activity, methods for the preparation thereof, pharmaceutical compositions containing such polypeptide and use thereof” (COUNCIL OF SCIENTIC AND INDUSTRIAL RESEARCH, priority 2002, published 2006).
Where two headings read alike, the source gives them in different places.

What was measured:
[1] = test system: passive cutaneous anaphylaxis (PCA); assay: Passive cutaneous anaphylaxis (PCA) test in rats; type: in vivo; conditions: for % Anti-PCA activity: rats
[2] = test system: Sensitised mast cells; assay: Mast cell degranulation by egg albumin in sensitised mast cells (immunological); type: in vivo, rats
Source text: (§1) Peptide 96/199 is related to the sequence of IgE Fc fragment.

[3] = test system: Normal mast cells; assay: Mast cell degranulation by comp 48/80 in normal mast cells (non-immunological); type: in vivo, rats
Source text: as §1

[4] = test system: sensitised guinea pig ileum; assay: Antigen (egg albumin) induced contraction of sensitised guinea pig ileum (Schultz-Dale phenomenon)
Method: (§2) This activity of peptide 96/199 was comarable with disodium cromoglycate (50 mg/kg ip) which is a standard antiallergic drug effective by inhalation.

[5] = test system: normal guinea pigs; assay: Aerosol test, histamine, guinea pigs; type: in vivo
[6] = test system: sensitised guinea pigs; assay: Aerosol test, egg-albumin, sensitised guinea pigs; type: in vivo
Method: as §2

[7] = Other pharmacological studies (cardiovascular, CNS, anti-inflammatory, diuretic); type: in vivo
Source text: Other Pharmacological Studies: Peptide 96-199 was further evaluated for its cardiovascular, Central Nervous System (CNS), anti-inflammatory, diuretic activities.

[8] = test system: leucine *amino-peptidase; conditions: enzymatic hydrolysis with leucine aminopeptidase, cited from earlier work
[9] = 50.0 pro (10.0 × 5 d) mg/kg × days
[10] = 0.5 pro (0.1 × 5 d) mg/kg × days
[11] = 1.0 pro (0.2 × 5 d) mg/kg × days
[12] = 2.5 pro (0.5 × 5 d) mg/kg × days
[13] = 5.0 pro (1.0 × 5 d) mg/kg × days

O=C([O-])c1cc(=O)c2c(OCC(O)COc3cccc4oc(C(=O)[O-])cc(=O)c34)cccc2o1.[Na+].[Na+] [DSCG, disodium cromoglycate, reference compound]
anti PCA activity ([1]; 50 mg/kg by nasal route): 81%
% Anti-PCA activity ([1]; 50.0 mg/kg IP): 77%
% Protection, sensitised mast cells (Immunological: Egg albumin) [2, 9]: 71%
% Protection, normal mast cells (Noninnunological: Comp. 48/80) [3, 9]: 72%
% Protection to ileum contraction induced by egg albumin ([4]; concentration 1.0 (μg/mL)): No block
% Protection to ileum contraction induced by egg albumin ([4]; concentration 2.0 (μg/mL)): 18%
% Protection to ileum contraction induced by egg albumin ([4]; concentration 3.0 (μg/mL)): 59%
% Protection, Histamine aerosol ([5]; 50 mg/kg ip): 17%
% Protection, Egg-albumin aerosol ([6]; 50 mg/kg ip): 64%

L-alanyl-glycyl-glycyl-L-aspartyl-sar-L-l ys [96/199]
% Anti-PCA activity ([1]; 0.5 mg/kg PO): 43%
% Anti-PCA activity ([1]; 1.0 mg/kg PO): 48%
% Anti-PCA activity ([1]; 2.5 mg/kg PO): 74%
% Anti-PCA activity ([1]; 5.0 mg/kg PO): 82%
% Protection, sensitised mast cells (Immunological: Egg albumin) [2, 10]: 34%
% Protection, sensitised mast cells (Immunological: Egg albumin) [2, 11]: 47%
% Protection, sensitised mast cells (Immunological: Egg albumin) [2, 12]: 66%
% Protection, sensitised mast cells (Immunological: Egg albumin) [2, 13]: 72%
% Protection, normal mast cells (Noninnunological: Comp. 48/80) [3, 10]: 39%
% Protection, normal mast cells (Noninnunological: Comp. 48/80) [3, 11]: 55%
% Protection, normal mast cells (Noninnunological: Comp. 48/80) [3, 12]: 77%
% Protection, normal mast cells (Noninnunological: Comp. 48/80) [3, 13]: 84%
% Protection to ileum contraction induced by egg albumin ([4]; concentration 1.0 (μg/mL)): 60%
% Protection to ileum contraction induced by egg albumin ([4]; concentration 2.0 (μg/mL)): 78%
% Protection to ileum contraction induced by egg albumin ([4]; concentration 3.0 (μg/mL)): 92%
% Protection, Histamine aerosol ([5]; 2.5 mg/kg po): Nil
% Protection, Histamine aerosol ([5]; 5.0 mg/kg po): 10%
% Protection, Egg-albumin aerosol ([6]; 2.5 mg/kg po): 55%
% Protection, Egg-albumin aerosol ([6]; 5.0 mg/kg po): 61%
any other pharmacological activity ([7]; in vivo): devoid of any other pharmacological activity
cardiovascular, Central Nervous System (CNS), anti-inflammatory, diuretic activities ([7]; up to a dose of 10 mg/kg): No significant effects

leucine enkephaline
half life ([8]; with beta-Cyclodextrins): 75 m.
half life ([8]; without cyclodextrin): 44 min
